# Experimental data as given in patent US20250108053A1, “RIBOCICLIB PHARMACEUTICAL COMPOSITIONS” (Novartis AG, priority 2022, published 2025).
# Experiment: Preliminary studies of ribociclib succinate in oral solutions: pH, solubility, preservatives
# Description: To achieve a clear solution of ribociclib succinate upon reconstitution, sufficient quantity of acid is needed to adjust the pH of the liquid into an acidic range for ribociclib succinate to completely solubilize. For use in the present invention, suitable solubilizers are in the form of an acid.
# [1] = oral solutions of ribociclib succinate
smiles,measurement,setting,value
C/C=C/C=C/C(=O)[O-].[K+] [potassium sorbate],pH required by the preservative,[1],about 3.5
CN(C)C(=O)c1cc2cnc(Nc3ccc(N4CCNCC4)cn3)nc2n1C1CCCC1.O=C(O)CCC(=O)O [ribociclib succinate],Solubility in basic pH as compared to acidic pH,,limited solubility in basic pH
same,pH range in which a clear solution was achieved,ribociclib succinate in oral solutions,3.5-4.5
O=C([O-])c1ccccc1.[Na+] [sodium benzoate],Observation in oral solution formulations with the preservative,[1],precipitation was observed
